In patent US8143316B2, “Method for treating peripheral vascular diseases” (Sucampo AG, priority 2005, dated 2012):

Tests used:
[1] = tested on: platelet-rich plasma (PRP); assay: ADP-induced platelet aggregation in rabbit platelet-rich plasma; assay type: cell-based; settings: for Maximum aggregation: ADP-induced, mean ± S.E. of 3 rabbits; for Inhibition of platelet aggregation: vs vehicle control (100%)
Protocol: Four months old male Kbs: J.W. rabbits were housed in aluminum cages in an animal room controlled for roomtemperature (23-24° C.), relative humidity (55-74%), ventilation rate (10-20 times/hour) and 12-hour light/dark cycle (lighting: 7:00 a.m.-7:00 p.m.). The animals were feeded with solid diet for rabbits (120 g/animal/day) and water ad libitum from automatic eatering system. The animals were subjected to at least 6 days of quarantine and acclimation. During the period, their body weight measurements and general sign observations were conducted, and the animals judged to be in good health were used in this study.
A cannula was inserted into the common carotid artery of the rabbit under inhalation anesthesia of isoflurane. Nine parts of the blood samples obtained through the cannula were mixed with 1 part of 3.8 w/v % sodium citrate. After centrifugation of the blood samples for 10 min at 1,000 rpm, platelet-rich plasma (PRP) was collected from the top layer. Then the bottom layer was further centrifuged for 15 min at 3,000 rpm, and platelet-poor plasma (PPP) was collected from the top layer. The platelet counts of the PRP and PPP fractions were performed using an ADVIA120 Hematology system (ADVIA120, Bayer Medical Ltd.). The PRP fraction was diluted with the PPP fraction so that the platelet counts was adjusted to approximately 30×10^4 cells/μL. Thus obtained PRP (0.178 mL) was put into a cuvet, and pre-incubated on a warm bath at 37° C. for about 5 minutes. Test solution (0.022 mL) containing prostaglandin E1 or Compound A was added to the PRP. One minute later, 25 μM ADP solution (0.022 mL) was added and the degree of platelet aggregation was measured using a platelet aggregation measuring device (NBS hematolaser, Nikko Bioscience Inc.). For each test solution, a duplicate test was performed on the blood samples from 3 animals. Inhibition rate (%) was evaluated by comparing the aggregation in the test substance group with that in the vehicle control group (100%).

Male Wistar rats = assay: Decreased peripheral microcirculation (cutaneous tissue blood flow) induced by ET-1 infusion in rats; assay type: in vivo, rat; settings: 100 μg/kg i.v.; for blood pressure: ET-1 infused rats; for cutaneous tissue blood flow: flow decreased by ET-1 infusion, up to 60 min after administration, vs vehicle
Protocol: Male Wistar rats (7-week-old) were used in this study. Animals were anesthetized by intraperitoneal injection of thiobutabarbital sodium (80 mg/kg). Body temperature (rectal temperature) of the animals was maintained at approximately 37° C. throughout the experiment with a heating pad. After depilating the instep of the right hind limb with a depilatory cream, the cutaneous tissue blood flow was measured continuously using a non-contact type laser Doppler flowmeter (FLO-N1, Omegawave Inc., Japan). For measurements of mean arterial blood pressure, a polyethylene catheter placed in the left femoral artery was connected to a pressure transducer (TP-400T, Nihon Koden Inc., Japan) coupled to an amplifier (AP-641G, Nihon Koden Inc., Japan). The cutaneous tissue blood flow and blood pressure were recorded and analyzed using a computer system (HEM Ver. 3.5, Notocord Systems, France). Endothelin-1 (ET-1) was infused into the femoral artery at a rate of 200 pmol/kg/min with a syringe pump via the polyethylene catheter inserted retrogradely into the caudal epigastric artery branched from the right femoral artery for 15 minutes. Infusion rate of ET-1 was decreased to 20 pmol/kg/min after the termination of 200 pmol/kg/min infusion, and the decreased amount of ET-1 infusion was kept until the end of this study. The cutaneous tissue blood flow was decreased by the infusion of ET-1 into the femoral artery. When the cutaneous tissue blood flow was reached a new steady level (25 to 50 minutes after starting ET-1 infusion), vehicle or each test compound solution was administered to the animals over 2 minutes in a volume of 1 mL/kg via the polyethylene catheter placed in the left femoral vein. The administered amount of the test compound was 100 μg/kg. The cutaneous tissue blood flow and blood pressure were measured continuously and recorded every 5 minutes for 60 minutes after the administration of vehicle or each test solution.

[2] = tested on: male Japanese white rabbits; assay: Intraocular pressure after topical eye application in rabbits; assay type: in vivo, rabbit; settings: 0.0016% topical
Protocol: Eight male Japanese white rabbits (Std: JW/CSK) weighing approximately 2.5-3.5 kg were used in this study. The same eye of each animal was treated with the test compounds and the other eye was with the vehicle consistently throughout the study with a washout period between each treatment. Thirty microliters of each test compound solution was applied topically to one eye of each animal using a micropipette (Pipetman, Gilson, Inc., France). The contralateral control eye received an equal volume of the vehicle. The animals were dosed at approximately the same time each morning. After the animals were restrained in a holder, one drop of topical anesthetic (0.4% oxybuprocaine hydrochloride) was applied to both eyes and the IOP was measured with an applanation pneumatonometer (Model 30 Classic™, Mentor O & O, Inc., USA) before dosing, and at 1, 2, 4, 6, and 8 hours after dosing.

Male GK/Jcl rats = assay: Cutaneous tissue blood flow in spontaneous diabetes rats; assay type: in vivo, rat
Protocol: Male GK/Jcl rats, a spontaneous model of non-insulin-dependent diabetes, were anesthetized by an intraperitoneal injection of thiobutabarbital sodium. Body temperature (rectal temperature) of the animals was maintained at approximately 37° C. throughout the experiment with a heating pad. After depilating the instep of the right hind limb with a depilatory cream, the cutaneous tissue blood flow (CTBF) was measured before (base line) and 20 minutes after intravenous administration of Compound A or the vehicle using a non-contact type laser Doppler flowmeter (FLO-N1, Omegawave Inc., Japan). Data was expressed as % compared with the base line cutaneous tissue blood flow.

[3] = tested on: streptozotocin-induced diabetic rats; assay: Cutaneous tissue blood flow in streptozotocin-induced diabetic rats; assay type: in vivo, rat
Protocol: Diabetes was induced by single intravenous injection of 50 mg/kg streptozotocin (STZ) in 7-week-old male Crl: CD(SD) rats. Animals with plasma glucose levels 400 mg/dL or more on day 19 after the STZ treatment were used in this study. Three weeks after the STZ injection, animals were anesthetized by an intraperitoneal injection of thiobutabarbital sodium. Body temperature (rectal temperature) of the animals was maintained at approximately 37° C. throughout the experiment with a heating pad After depilating the instep of the right hind limb with a depilatory cream, the cutaneous tissue blood flow (CTBF) was measured continuously using a non-contact type laser Doppler flowmeter (FLO-N1, Omegawave Inc., Japan). The blood pressure and heart rate were simultaneously monitored. Compound A or the vehicle was intravenously administered to the animals over 10 min.

Male Crl: CD(SD) rats = assay: Cutaneous tissue blood flow in anesthetized rats; assay type: in vivo, rat
Protocol: Male Crl: CD(SD) rats were anesthetized by an intraperitoneal injection of thiobutabarbital sodium. Body temperature (rectal temperature) of the animals was maintained at approximately 37° C. throughout the experiment with a heating pad. After depilating the instep of the right hind limb with a depilatory cream, the cutaneous tissue blood flow CTBF) was measured before and 30 minutes after intravenous administration of Compound C (11-deoxy-13,14-dihyrdo-16,16-difluoro-PGE1) or the vehicle using a non-contact type laser Doppler flowmeter (FLO-N1, Omegawave Inc., Japan). The blood pressure and heart rate were also monitored.

Compound: CCCCC[C@H](O)/C=C/[C@H]1[C@H](O)CC(=O)[C@@H]1CCCCCCC(=O)O [PGE1, prostaglandin E1, reference compound]
- Maximum aggregation ([1]; 1 × 10^−6 g/mL): 4.0 ± 0.7 %
- Inhibition of platelet aggregation ([1]; 1 × 10^−6 g/mL): 89.0%
- Maximum aggregation ([1]; 1 × 10^−7 g/mL): 3.2 ± 0.6 %
- Inhibition of platelet aggregation ([1]; 1 × 10^−7 g/mL): 91.2%
- Maximum aggregation ([1]; 1 × 10^−8 g/mL): 28.7 ± 3.6%
- Inhibition of platelet aggregation ([1]; 1 × 10^−8 g/mL): 20.9%

Compound: CCCCC(F)(F)C(=O)CCC1CCC(=O)C1CCCCCCC(=O)OC(C)C (centres unmarked) [Compound B, 11-deoxy-13,14-dihydro-15-keto-16,16-difluoro-PGE1 isopropyl ester]
- blood pressure (Male Wistar rats): no significant effect
- cutaneous tissue blood flow (Male Wistar rats): significantly increased

Compound: CCCCC(F)(F)C(=O)CCC1CCC(=O)C1CCCCCCC(=O)O (centres unmarked) [Compound A, 11-deoxy-13,14-dihydro-15-keto-16,16-difluoro-PGE1]
- blood pressure (Male Wistar rats): no significant effect
- cutaneous tissue blood flow (Male Wistar rats): significantly increased
- IOP, 1 hr after administration ([2]; 30 μL, 1 hr, mean ± SE, n=8): 13.1 ± 0.6 mmHg
- IOP, 2 hr after administration ([2]; 30 μL, 2 hr, mean ± SE, n=8): 14.5 ± 0.6 mmHg
- IOP, 4 hr after administration ([2]; 30 μL, 4 hr, mean ± SE, n=8): 13.8 ± 0.8 mmHg
- IOP, 6 hr after administration ([2]; 30 μL, 6 hr, mean ± SE, n=8): 15.1 ± 1.0 mmHg
- IOP, 8 hr after administration ([2]; 30 μL, 8 hr, mean ± SE, n=8): 17.5 ± 1.3 mmHg
- IOP, Pre ([2]; 30 μL, before dosing (baseline), mean ± SE, n=8): 17.0 ± 0.8 mmHg
- intraocular pressure (in words) ([2]; vs vehicle-treated contralateral eye): significantly lowered
- Maximum aggregation ([1]; 1 × 10^−5 g/mL): 36.8 ± 3.1%
- Inhibition of platelet aggregation ([1]; 1 × 10^−5 g/mL): −1.4%
- Maximum aggregation ([1]; 1 × 10^−6 g/mL): 36.2 ± 4.0%
- Inhibition of platelet aggregation ([1]; 1 × 10^−6 g/mL): 0.3%
- Maximum aggregation ([1]; 1 × 10^−7 g/mL): 35.2 ± 3.9%
- Inhibition of platelet aggregation ([1]; 1 × 10^−7 g/mL): 3.0%
- effect on platelet aggregation (in words) ([1]; up to the highest concentration (1×10^−5 g/mL) tested): no effect
- Cutaneous Tissue Blood Flow compared with the base line (Male GK/Jcl rats; 20 μg/kg i.v., 20 minutes after administration, mean ± S.E., n=5): 122 ± 1 %
- cutaneous tissue blood flow (in words) (Male GK/Jcl rats; spontaneous diabetes rats, i.v., compared with vehicle): significantly increased
- Cutaneous Tissue Blood Flow, Pre ([3]; 30 μg/kg i.v. over 10 min, before dosing (baseline), mean ± S.E., n=5): 4.8 ± 0.5 mL/min/100 g tissue
- blood pressure (BP) ([3]; STZ diabetic rats, i.v.): no effects
- heart rate ([3]; STZ diabetic rats, i.v.): no effects
- cutaneous tissue blood flow (in words) ([3]; STZ diabetic rats, i.v., compared with vehicle): significantly increased

Compound: CCCCC(F)(F)C(O)CCC1CCC(=O)C1CCCCCCC(=O)O (centres unmarked) [Compound C, 11-deoxy-13,14-dihyrdo-16,16-difluoro-PGE1]
- Cutaneous Tissue Blood Flow, After administration (Male Crl: CD(SD) rats; 10 μg/kg i.v., 30 minutes after administration, mean ± S.E., n=5): 13.0 ± 0.2 mL/min/100 g tissue
- Cutaneous Tissue Blood Flow, Before administration (Male Crl: CD(SD) rats; 10 μg/kg i.v., before administration (baseline), mean ± S.E., n=5): 11.6 ± 0.3 mL/min/100 g tissue
- blood pressure (Male Crl: CD(SD) rats; i.v.): no effects
- heart rate (Male Crl: CD(SD) rats; i.v.): no effects
- cutaneous tissue blood flow (in words) (Male Crl: CD(SD) rats; i.v., compared with vehicle treatment): significantly increased
